Measured values published in patent US20060019967A1 (priority 2004, published 2006).

biological target: HCV NS3 protease (Hepatitis C virus genotype 1b, UniProt P26663); format: biochemical
Sequence (P26663 1027-1206, other chains not shown): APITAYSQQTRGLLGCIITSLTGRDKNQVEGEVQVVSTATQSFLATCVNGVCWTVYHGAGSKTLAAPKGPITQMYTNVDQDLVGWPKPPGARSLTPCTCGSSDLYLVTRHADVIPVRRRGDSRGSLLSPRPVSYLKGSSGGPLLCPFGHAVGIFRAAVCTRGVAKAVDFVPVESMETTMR

Question: For `Cc1cc(S(=O)(=O)c2c([N+](=O)[O-])cc(C(F)(F)F)cc2[N+](=O)[O-])c(Cl)cc1Cl` [Compound 1], which “inhibition of the proteolytic activity of HCV NS3 protease” value (from here on “inhibition”) is on record?
Answer: effectively inhibited

Question: Which “inhibition” value does the source give for `CCOC(=O)/C(C#N)=C/Nc1ccc(S(=O)(=O)c2ccc(N/C=C(\C#N)C(=O)OCC)cc2)cc1` [Compound 14] here?
Answer: effectively inhibited

Question: For `CCOC(=O)C(=CNc1ccc(S(=O)(=O)c2ccc(NC=C(C(=O)OCC)C(=O)OCC)cc2)cc1)C(=O)OCC` [Compound 20], which “inhibition” value is on record?
Answer: effectively inhibited

Question: With `O=C(CC1=NCCS1)c1cccs1` [Compound 21] as the molecule, how does the “inhibition” value read?
Answer: effectively inhibited

Question: Which “inhibition” value does the source give for `CN(C)/C=C(/C(=O)c1cccs1)c1nnnn1-c1ccccc1` [Compound 25] here?
Answer: effectively inhibited
